One series is described as follows: Solubility in PBS. The series is classed as physicochemical. Particulars: phosphate buffered saline, aqueous buffer, kinetic from dmso stock, PBS pH 7.4, 1% DMSO, 22° C. As for the experimental part:
The solubility of compounds were tested in triplicate in phosphate buffered saline (PBS), pH 7.4. Per well, 198 μL PBS is added to a Millipore Solvinert Hydrophilic PTFE 96 well filter plate: pore size: 0.45 μm (MSRLN0450). Test compounds were introduced from 10 mM DMSO stock solutions (2 μL). The final concentration of DMSO was 1 percent. Samples were allowed to incubate at 22° C. for 18 hours. In the morning the plate was centrifuged where the soluble portion passes through the filter and was collected in a capture plate. Clotrimazole was included as a control to assure the assay was working properly. The samples were analyzed by HPLC. Peak area was compared to a standard of known concentration.

For another series, the system named is HeLa cells. Kind of series: Analysis of cytotoxicity (WST-1). The series is classed as cell-based, human. The method, then:
Assay Overview: The purpose of this assay was to determine cytotoxicity of powder samples of test compounds. In this assay, HeLa cells in either serum-free medium or medium containing fetal calf serum (FCS) were incubated with test compounds, followed by determination of cell viability. The assay utilized the WST-1 substrate, which was converted into colorimetric formazan dye by the metabolic activity of viable cells. The amount of formed formazan directly correlated to the number of metabolically active cells in the culture.
Protocol Summary: This assay was started by seeding HeLa cells in DMEM medium supplemented with 10% FCS and 1× Pen-Strep-Glutamine in a 96-well plate. Cells were incubated at 37° C. in a humidified incubator until 80% confluent (24 hours). Medium was removed, and 100 μL of fresh medium (serum-free or supplemented with 10% FCS), pre-mixed with DMSO or test compound, was added to each well. Cells were incubated for 48 hours at 37° C. in a humidified incubator and cell viability was determined by the WST-1 assay (Roche) according to manufacturer instructions. CC50 values were determined from dose-response curves from three replicates at each inhibitor concentration (10, 100, 1000, 10000, 100000 nM), compared to six replicates of cells treated with DMSO only.
For orientation: Formazan colour is commonly taken as a measure of viable cells.

In the next series the target is T1, MAGL (Homo sapiens, UniProt Q99685).
T1 construct: endogenous in cells; host or cells: HeLa
Kind of series: Selectivity analysis by ABPP-SILAC, HeLa cells in situ, FP-biotin. It counts as cell-based. Particulars: 2 h in situ. The text has this:
(§1) Competitive ABPP-SILAC (Adibekian, A., et al. J Am Chem Soc, 2012. 134(25): p. 10345-8) combined competitive ABPP (Leung, D., et al. Nat Biotechnol, 2003. 21(6): p. 687-91) with stable isotope labeling of cells (SILAC) (Ong, S. E., et al. Mol Cell Proteomics, 2002. 1(5): p. 376-86), and allowed for precise quantitation of enzyme inhibition by calculating the isotopic ratios of peptides from inhibitor-treated and control cells.
(§2) Assay Overview: The purpose of this assay was to determine the selectivity profile of powder samples of test compounds using stable isotope labeling with amino acids in cell culture (SILAC) ABPP. In this assay, cultured HeLa cells were metabolically labeled with light or heavy amino acids. Light and heavy cells were treated with inhibitor and DMSO, respectively, in situ. Cells were harvested, and proteome fractions were isolated and reacted with the serine-hydrolase-specific activity-based affinity probe fluorophosphonate-biotin (FP-biotin). Light and heavy samples were combined in a 1:1 (w/w) ratio. Biotinylated proteins were enriched, trypsinized, and analyzed by LC/LC-MS/MS (MudPIT) Inhibition of target and anti-target activity was quantified by comparing intensities of light and heavy peptide peaks. […] Proteins not targeted by inhibitors were expected to have a ratio close to 1.
(§3) Sample Preparation. HeLa cells were initially grown for at least eight passages in either light or heavy SILAC DMEM medium supplemented with 10% dialyzed FCS and 1× PenStrep Glutamine in a humidified incubator (37° C., 5% CO2). Light medium was supplemented with 100 μg/mL L-arginine (Sigma) and 100 μg/mL L-lysine (Sigma). Heavy medium was supplemented with 100 μg/mL [13C615N4]-L-Arginine (Isotek) and 100 μg/mL [13C615N2]-L-Lysine (Isotek). […]
(§4) LC-MS/MS analysis. Samples were analyzed by multidimensional liquid chromatography tandem mass spectrometry (MudPIT) using an Agilent 1200-series quaternary pump and Thermo Scientific LTQ Orbitrap Velos ion trap mass spectrometer. […]

A further series deals with T2, ABHD6 (Homo sapiens, UniProt Q9BV23).
T2 construct: endogenous in cells; host or cells: HeLa
Described as above. It counts as cell-based. The following applies: 2 h in situ, read-out: inhibition of anti-target ABHD6 (ABPP-SILAC).
Source text: as §1, §2, §3, §4

The test system of another series is human LYPLA1/2. Described as above. Particulars: 1 μM, 2 h in situ. The series is classed as cell-based.
Source text: as §1, §2, §3, §4

1 compound from patent publication US9981972B2, “N-hydroxy bicyclic hydantoin carbamates as tools for identification of serine hydrolase targets” (ABIDE THERAPEUTICS, INC., priority 2014, dated 2018) can be followed below.

In brackets after ≈: the same amount, converted by molar mass.

T2 sequence (Q9BV23 whole entry): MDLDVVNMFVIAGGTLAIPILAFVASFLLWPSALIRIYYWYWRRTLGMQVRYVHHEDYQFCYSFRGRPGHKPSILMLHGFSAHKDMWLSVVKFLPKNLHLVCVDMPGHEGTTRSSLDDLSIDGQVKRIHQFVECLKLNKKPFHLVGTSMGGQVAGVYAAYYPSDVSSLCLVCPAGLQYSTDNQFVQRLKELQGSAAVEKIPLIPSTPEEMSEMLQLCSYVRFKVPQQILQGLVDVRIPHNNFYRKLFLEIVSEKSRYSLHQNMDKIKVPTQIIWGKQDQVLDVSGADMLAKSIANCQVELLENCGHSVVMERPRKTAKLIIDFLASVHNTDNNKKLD
T1 sequence (Q99685 whole entry): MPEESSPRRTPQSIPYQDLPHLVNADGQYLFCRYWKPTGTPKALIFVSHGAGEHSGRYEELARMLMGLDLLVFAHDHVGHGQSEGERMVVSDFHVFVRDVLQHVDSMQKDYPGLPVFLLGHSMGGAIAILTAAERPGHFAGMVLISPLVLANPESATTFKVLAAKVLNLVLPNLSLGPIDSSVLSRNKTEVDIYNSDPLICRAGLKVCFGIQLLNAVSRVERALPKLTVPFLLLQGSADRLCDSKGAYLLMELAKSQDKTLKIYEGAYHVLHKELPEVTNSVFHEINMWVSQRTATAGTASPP

A word on the solubility: it is how much of the substance goes into solution per volume. Lower therefore signals a poorly soluble substance. Usually inhibition stands for the drop in the measured response relative to a control, in per cent. In the case of `O=C(ON1C(=O)C2CN(C(=O)N3CCOCC3)CCN2C1=O)N1CCC(CCc2ccc(Cl)cc2)CC1` (stereo not drawn) [Compound 1, 7-(morpholine-4-carbonyl)-1,3-dioxohexahydroimidazo[1,5-a]pyrazin-2(3H)-yl 4-(4-chloro-phenethyl)piperidine-1-carboxylate], in “Solubility in PBS”, the solubility at 18 h came out at 18 µM (≈ 9.61 µg/mL). The cytotoxicity entry in the series on HeLa cells (HeLa, 48 h, serum-free and serum-supplemented medium, up to 100 μM) is given as “did not show evidence of cytotoxicity”. In addition, the “dosing window (CC50 limit 10 μM versus in situ IC50)” value in the series on HeLa cells (based on in situ IC50 values of 87/143 nM) is on record as roughly 70 fold. For the same compound, the values for the inhibition at 1 µM against MAGL and on ABHD6 were roughly 40% and greater than 90%, respectively. The “inhibition of human LYPLA1/2 (ABPP-SILAC)” value in the series with human LYPLA1/2 was greater than 90%.
